As for `CCC(C)(C)c1ccccc1` [2-phenyl-2-methylbutane], the flash point came to 59.4 °C.

Turning to `CCCCCCCc1ccccc1` [heptylbenzene], the flash point worked out at 95.5 °C.

In turn, `CC(C)Cc1ccccc1` [isobutylbenzene] displayed a flash point of 50.1 °C.

This is another data set of the same source.
`CCCC[O][Sn]([CH2]CCC)([CH2]CCC)[O]CCCC` [DI-n-BUTYLDI-n-BUTOXYTIN] gave a flash point of 116.00 °C.

Compound `CCC[CH2][Sn]([CH2]CCC)([O]C(C)=O)[O]C(C)=O` [DI-n-BUTYLDIACETOXYTIN] displayed a flash point of 143.00 °C.

As to `CCC[CH2][Sn]([CH2]CCC)([O]C)[O]C` [DI-n-BUTYLDIMETHOXYTIN], the flash point worked out at 110.00 °C.

`C[C](C)(C)[Sn]([Cl])([Cl])[C](C)(C)C` [DI-t-BUTYLDICHLOROTIN] returned a flash point of 113.00 °C.

With `C=C[CH2][Sn]([CH2]C=C)([CH2]CCC)[CH2]CCC` [DIALLYLDI-n-BUTYLTIN], the flash point amounted to 101.00 °C.

This is another data set of the same source.
`CCC(C)(C)c1ccccc1` [2-phenyl-2-methylbutane] registered a flash point of 65 °C.

The source holds these as a separate data set.
The compound `CC(C)[O-].CC(C)[O-].CC(C)[O-].[B+3]` [BORON ISOPROPOXIDE] returned a flash point of 28.00 °C.

For `C[O-].C[O-].C[O-].[B+3]` [BORON METHOXIDE], the flash point is -1.00 °C.

`CCCC[O-].CCCC[O-].CCCC[O-].[B+3]` [BORON n-BUTOXIDE] gave a flash point of 93.00 °C.

`CCCCC(CC)C(=O)[O-].CCCCC(CC)C(=O)[O-].[Ca+2]` (stereo not drawn) [CALCIUM 2-ETHYLHEXANOATE] gave a flash point of 127.00 °C.

For `[CH3][Cd][CH3]` [DIMETHYLCADMIUM], the flash point is -18.00 °C.

Regarding `c1ccc(Pc2ccccc2)cc1` [DIPHENYLPHOSPHINE], the flash point was determined as 110.00 °C.

`CC[N-]C.CC[N-]C.CC[N-]C.CC[N-]C.[Hf+4]` [HAFNIUM TETRAKIS(ETHYLMETHYLAMIDE)] returned a flash point of 10.00 °C.

Compound `C[CH2][Pb]([CH2]C)([CH2]C)[CH2]C` [TETRAETHYLLEAD] displayed a flash point of 73.00 °C.

For `CC(C)C[O-].CC(C)C[O-].CC(C)C[O-].CC(C)C[O-].[Ti+4]` [TITANIUM ISOBUTOXIDE], the flash point was found to be 77.00 °C.

The compound `C[O-].C[O-].C[O-].C[O-].[Ti+4]` [TITANIUM METHOXIDE] yielded a flash point of 48.00 °C.

For the compound `Cc1ccccc1[O-].Cc1ccccc1[O-].Cc1ccccc1[O-].Cc1ccccc1[O-].[Ti+4]` [TITANIUM METHYLPHENOXIDE], the flash point amounted to 66.00 °C.

Compound `C[N-]C.C[N-]C.C[N-]C.C[N-]C.[Ti+4]` [TITANIUM TETRAKIS(DIMETHYLAMIDE)] showed a flash point of 8.00 °C.

In the case of `CCCC[O-].CCCC[O-].CCCC[O-].CCCC[O-].[Ti+4]` [TITANIUM n-BUTOXIDE], the flash point was found to be 76.00 °C.

The compound `CCOP(OCC)OCC` [TRIETHYLPHOSPHITE] showed a flash point of 54.00 °C.

As for `CCCCCCCCP(CCCCCCCC)CCCCCCCC` [TRIOCTYLPHOSPHINE], the flash point is 147.00 °C.

With `CC[N](CC)[Ta](=[N]C(C)(C)C)([N](CC)CC)[N](CC)CC` [TRIS(DIETHYLAMINO)(t-BUTYLIMINO) TANTALUM], the flash point was 46.00 °C.

For `C[Si](C)(C)OB(O[Si](C)(C)C)O[Si](C)(C)C` [TRIS(TRIMETHYLSILOXY)BORON], the flash point turned out to be 42.00 °C.

Turning to `C=C[c-]1cccc1.[Fe+2].c1cc[cH-]c1` [VINYLFERROCENE], the flash point is 62.00 °C.

As to `CCCCC(CC)C(=O)[O-].CCCCC(CC)C(=O)[O-].[Zn+2]` (stereo not drawn) [ZINC 2-ETHYLHEXANOATE], the flash point came to 127.00 °C.

For `CC(C)(C)CCCCCC(=O)[O-].CC(C)(C)CCCCCC(=O)[O-].[Zn+2]` [ZINC NEODECANOATE], the flash point turned out to be 102.00 °C.

`CC[N-]C.CC[N-]C.CC[N-]C.CC[N-]C.[Zr+4]` [ZIRCONIUM TETRAKIS(ETHYLMETHYLAMIDE)] showed a flash point of 10.00 °C.

Consider `CC(C)(C)[O-].CC(C)(C)[O-].CC(C)(C)[O-].CC(C)(C)[O-].[Zr+4]` [ZIRCONIUM t-BUTOXIDE], for which the flash point worked out at 85.00 °C.

The source holds these as a separate data set.
`CCCCCCCc1ccccc1` [heptylbenzene] registered a flash point of 95 °C.

As for `CC(C)Cc1ccccc1` [isobutylbenzene], the flash point was 55 °C.

The values are drawn from a flash point compilation (Sun et al. 2020).
